According to patent publication US20220202899A1, “COMPOSITION FOR PREVENTION OR TREATMENT OF HAIR LOSS INCLUDING HAPLN1” (HAPLNSCIENCE INC., priority 2019, published 2022):

Experiments:
TβRII [1] = assay: TβRII protein after HAPLN1 and/or HA in CD44-deficient human hair germinal matrix cells; format: cell-based; settings: after CD44 siRNA; HAPLN1 25 ng/mL and/or HA 25 μg/mL; TGF-β2 2 ng/mL, 23 hours
Description: (§1) The human hair germinal matrix cells, which were made to be deficient in CD44 by using CD44 siRNA, were dispensed into a poly-D-lysine 6-well plate at a concentration of 5.0×10^4 per well and cultured for 24 hours. After 24 hours, the medium was removed and replaced with a low-serum medium. CD44 siRNA and scrambled siRNA were added at a concentration of 25 pmol per well and incubated for 24 hours. After the siRNA and the medium were all removed, the medium was replaced with a serum-free medium having HAPLN1 (25 ng/mL) or HA (25 μg/mL) added thereto, and cultured for 1 hour. TGF-β2 (2 ng/mL) was treated and incubated for 23 hours. After collecting cells, a lysis buffer (25 mM Tris-HCl, 1 mM EDTA, 0.1% Triton-X100, phosphatase inhibitor, and protease inhibitor) was added, and all the cells were broken through sonication. TβRII in the sample was measured using Western blotting. The optical density of TβRII was compared to that of GAPDH using a densitometer.

cell membrane TβRII = assay: Cell membrane TβRII protein (biotin labelling, immunoprecipitation, Western blotting); format: cell-based, human; settings: HAPLN1 25 ng/mL and/or HA 25 μg/mL; TGF-β2 2 ng/mL
Description: All proteins present in the cell membrane were labeled with biotin, and immunoprecipitation was performed with a biotin antibody to isolate only the cell membrane protein. In order to confirm changes in the ratio of TβRII among cell membrane proteins, Western blotting was performed. The specific experimental method will now be described.
Human hair germinal matrix cells were dispensed into a poly-D-lysine 100 mm dish at a concentration of 2.7×10^6 and cultured for 24 hours. After 24 hours, the medium was removed and replaced with a new serum-free medium. HAPLN1 was treated with 25 ng/mL and HA with 25 μg/mL, and after 1 hour, TGF-β2 (2 ng/mL) was treated. To label biotin after 23 hours, EZ-Link™ Sulfo-NHS-LC-Biotin (Thermo Fisher Scientific, MA, USA) was treated at a concentration of 250 μg/mL and incubated at 4° C. for 1 hour. The biotin labeling reaction was terminated by treatment with 50 mM Tris-HCl. After collecting cells, a lysis buffer (50 mM Tris-HCl, 150 mM NaCl, 1% NP-40, phosphatase inhibitor, and protease inhibitor) was added, and all the cells were broken through sonication. Cell membrane proteins were isolated by performing immunoprecipitation experiments using anti-biotin antibodies. TβRII in the isolated membrane protein sample was measured using Western blotting. The optical density of TβRII was compared to that of GAPDH using a densitometer.

p-ERK1/2 = p-ERK1/2 in human hair germinal matrix cells stimulated with TGF-β2 (Western blotting); format: cell-based; settings: HAPLN1 25 ng/mL and/or HA 25 μg/mL, 23 hours; TGF-β2 2 ng/mL, 1 hour
Description: (§2) Human hair germinal matrix cells were dispensed into a poly-D-lysine 6-well plate at a concentration of 5.0×10^4 per well and cultured for 24 hours. After 24 hours, the medium was removed and replaced with a new serum-free medium. HAPLN1 was treated with 25 ng/mL and HA with 25 μg/mL, incubated for 23 hours, and then stimulated with TGF-β2 (2 ng/mL) for 1 hour. After collecting cells, a lysis buffer (25 mM Tris-HCl, 1 mM EDTA, 0.1% Triton-X100, phosphatase inhibitor, and protease inhibitor) was added, and all the cells were broken through sonication. p-ERK1/2, p-Smad2, p-MEK1/2, and p-c-Raf in the sample were measured using Western blotting. Optical densities of p-ERK1/2, p-Smad2, p-MEK1/2, and p-c-Raf were compared to those of ERK1/2, Smad2/3, MEK1, and c-Raf using a densitometer. Here, ERK1/2, Smad2/3, MEK1, and c-Raf were used as loading controls.

[2] = system: human hair germinal matrix cells; assay: Cell proliferation of human hair germinal matrix cells, CCK-8 (Example 10); format: cell-based; settings: HAPLN1 25 ng/mL and/or HA 25 μg/mL; TGF-β2 2 ng/mL, 23 hours
Description: Human hair germinal matrix cells were dispensed into a poly-D-lysine 96-well plate at a concentration of 2.0×10^4 per well and cultured for 24 hours. After 24 hours, the medium was removed and replaced with a new serum-free medium. HAPLN1 was treated with 25 ng/mL and HA with 25 μg/mL, incubated for 1 hour, and then stimulated with TGF-β2 (2 ng/mL) for 23 hours. CCK-8 (Enzo Biochem, NY, USA) was treated and incubated at 37° C. for 1 hour.

TβRII [3] = assay: TβRII protein in human hair germinal matrix cells treated with HAPLN1 and/or HA, then TGF-β2 (Western blotting); format: cell-based; settings: HAPLN1 25 ng/mL or HA 25 μg/mL alone; TGF-β2 2 ng/mL after 1 hour; 23 hours
Description: Human hair germinal matrix cells were dispensed into a poly-D-lysine 6-well plate at a concentration of 5.0×10^4 per well and cultured for 24 hours. After 24 hours, the medium was removed and replaced with a new serum-free medium. HAPLN1 was treated with 25 ng/mL, HA was treated with 25 μg/mL, and after 1 hour, TGF-β2 (2 ng/mL) was treated. After 23 hours, cells were collected, a lysis buffer (25 mM Tris-HCl, 1 mM EDTA, 0.1% Triton-X100, phosphatase inhibitor, and protease inhibitor) was added, and all the cells were broken through sonication. TβRI and TβRII in the sample were measured using Western blotting. The optical density of TβRII was compared to that of GAPDH using a densitometer.

p-c-Raf = p-c-Raf in human hair germinal matrix cells stimulated with TGF-β2 (Western blotting); format: cell-based; settings: HAPLN1 25 ng/mL and/or HA 25 μg/mL; TGF-β2 2 ng/mL, 1 hour
Description: as §2

p-MEK1/2 = p-MEK1/2 in human hair germinal matrix cells stimulated with TGF-β2 (Western blotting); format: cell-based; settings: HAPLN1 25 ng/mL and/or HA 25 μg/mL; TGF-β2 2 ng/mL, 1 hour
Description: as §2

p-Smad2 = p-Smad2 in human hair germinal matrix cells stimulated with TGF-β2 (Western blotting); format: cell-based; settings: HAPLN1 25 ng/mL and/or HA 25 μg/mL; TGF-β2 2 ng/mL, 1 hour
Description: as §2

TβRII [4] = assay: TβRII protein after exogenous HAPLN1 and/or HA in endogenous HAPLN1-deficient human hair germinal matrix cells; format: cell-based; settings: after HAPLN1 siRNA; HAPLN1 25 ng/mL and/or HA 25 μg/mL; TGF-β2 2 ng/mL, 23 hours
Description: as §1, with “cells” for “cells, which were made to be deficient in CD44 by using CD44 siRNA,”, “HAPLN1” for “CD44”

[5] = system: human hair germinal matrix cells; assay: Hair germinal matrix cell proliferating effect, CCK-8 (Example 13); format: cell-based; settings: 25 ng/ml; TGF-β2 condition not given
Description: (§3) In the same manner as described above, HAPLN1 (25 ng/ml), CX3CL1 (25 ng/ml), CDON (25 ng/ml) or minoxidil (10 μM), and human recombinant TGF-β2 were diluted to a final concentration of 2 ng/ml, and the medium of the group containing TGF-β2 was replaced by 200 μl. To reduce an experimental variation, 3 wells per group were treated (triplication).
(§4) After incubation for 23 hours, the plate was removed from the incubator, and 20 μl of CCK-8 (WST-8) solution was added to the plate containing the medium and the reagent per 200 μl of the medium for the reaction to be carried out at 37° C. for 1 hour.
Human hair germinal matrix cells were released in a poly-D-lysine-coated flask using a mesenchymal stem cell medium (MSCM), and cultured in a 5% CO2 incubator at 37° C. When the cells were about 90% full, the cells were detached with a 0.05% Trypsin/EDTA solution, and then only the cells were recovered by centrifugation at 1000 rpm for 3 minutes. The recovered cells were dispensed into 96-well poly-D-lysine coated plates (BD bioscience) at 2.0×10^3 per well and cultured for 24 hours, and the final concentrations of HAPLN1, CX3CL1 and CDON were diluted to 25 ng/ml in a serum-free medium. The subsequent process was performed in the same manner as the experiment for the dermal papilla cells to measure the absorbance, and the results are shown in FIG. 22.

[6] = system: human dermal papilla cells; assay: Dermal papilla cell proliferating effect, CCK-8 (Example 13); format: cell-based; settings: proteins 25 ng/ml, minoxidil 10 μM; TGF-β2 (2 ng/ml) present or absent
Description: Human dermal papilla cells were cultured in a 37° C., 5% CO2 incubator using a dermal papilla cell proliferation medium (Promocell). When the cells were about 90% full, the cells were detached with a 0.05% Trypsin/EDTA solution and then centrifuged at 1000 rpm for 3 minutes to recover only the cells. The cells were dispensed into a 96-well plate at 2.0×10^3 per well, cultured for 24 hours, and HAPLN1, CX3CL1 and CDON were diluted to have a final concentration of 25 ng/ml in serum-free medium. After removing the existing culture medium, 200 μl of diluted HAPLN1, CX3CL1, and CDON were dispensed into each well and cultured for 1 hour. To reduce an experimental variation, 3 wells per group were treated (triplication). In addition, minoxidil, which is known to proliferate dermal papilla cells, was treated with 10 μM and set as a positive control.
as §3, §4

| Molecule | TβRII protein in CD44-deficient cells (TβRII [1]) | cell membrane TβRII protein concentration (cell membrane TβRII) | ERK1/2 signaling (p-ERK1/2 compared to ERK1/2) (p-ERK1/2) | cell proliferation (absorbance at 450 nm) compared to the control group [2] | TβRII protein (optical density compared to GAPDH) (TβRII [3]) | c-Raf activity (p-c-Raf compared to c-Raf) (p-c-Raf) | MEK1/2 activity (p-MEK1/2 compared to MEK1) (p-MEK1/2) | phosphorylation of Smad2 (p-Smad2) | TβRII protein in endogenous HAPLN1-deficient cells (TβRII [4]) | hair germinal matrix cell proliferation (absorbance at 450 nm) [5] | dermal papilla cell proliferation (absorbance at 450 nm) [6] |
| --- | --- | --- | --- | --- | --- | --- | --- | --- | --- | --- | --- |
| Hyaluronic acid [HA, reference compound] | not confirmed that TβRII was recovered | increased | activated | promoted | increased | increased activities | increased activities | no change | recovered |  |  |
| CX3CL1: protein expressed by a cell adhesion gene present in dermal papilla cells (protein, UniProt P78423 25-397, looked up) Fractalkine: QHHGVTKCNITCSKMTSKIPVALLIHYQQNQASCGKRAIILETRQHRLFCADPKEQWVKDAMQHLDRQAAALTRNGGTFEKQIGEVKPRTTPAAGGMDESVVLEPEATGESSSLEPTPSSQEAQRALGTSPELPTGVTGSSGTRLPPTPKAQDGGPVGTELFRVPPVSTAATWQSSAPHQPGPSLWAEAKTSEAPSTQDPSTQASTASSPAPEENAPSEGQRVWGQGQSPRPENSLEREEMGPVPAHTDAFQDWGPGSMAHVSVVPVSSEGTPSREPVASGSWTPKAEEPIHATMDPQRLGVLITPVPDAQAATRRQAVGLLAFLGLLFCLGVAMFTYQSLQGCPRKMAGEMAEGLRYIPRSCGSNSYVLVPV |  |  |  |  |  |  |  |  |  | inhibiting cell proliferation | did not proliferate dermal papilla cells or rather inhibited proliferation thereof |
| CDON: protein expressed by a cell adhesion gene present in dermal papilla cells (protein, UniProt Q4KMG0 26-1287, looked up) Cell adhesion …: DLAPYFTSEPLSAVQKLGGPVVLHCSAQPVTTRISWLHNGKTLDGNLEHVKIHQGTLTILSLNSSLLGYYQCLANNSIGAIVSGPATVSVAVLGDFGSSTKHVITAEEKSAGFIGCRVPESNPKAEVRYKIRGKWLEHSTENYLILPSGNLQILNVSLEDKGSYKCAAYNPVTHQLKVEPIGRKLLVSRPSSDDVHILHPTHSQALAVLSRSPVTLECVVSGVPAPQVYWLKDGQDIAPGSNWRRLYSHLATDSVDPADSGNYSCMAGNKSGDVKYVTYMVNVLEHASISKGLQDQIVSLGATVHFTCDVHGNPAPNCTWFHNAQPIHPSARHLTAGNGLKISGVTVEDVGMYQCVADNGIGFMHSTGRLEIENDGGFKPVIITAPVSAKVADGDFVTLSCNASGLPVPVIRWYDSHGLITSHPSQVLRSKSRKSQLSRPEGLNLEPVYFVLSQAGASSLHIQAVTQEHAGKYICEAANEHGTTQAEASLMVVPFETNTKAETVTLPDAAQNDDRSKRDGSETGLLSSFPVKVHPSAVESAPEKNASGISVPDAPIILSPPQTHTPDTYNLVWRAGKDGGLPINAYFVKYRKLDDGVGMLGSWHTVRVPGSENELHLAELEPSSLYEVLMVARSAAGEGQPAMLTFRTSKEKTASSKNTQASSPPVGIPKYPVVSEAANNNFGVVLTDSSRHSGVPEAPDRPTISTASETSVYVTWIPRANGGSPITAFKVEYKRMRTSNWLVAAEDIPPSKLSVEVRSLEPGSTYKFRVIAINHYGESFRSSASRPYQVVGFPNRFSSRPITGPHIAYTEAVSDTQIMLKWTYIPSSNNNTPIQGFYIYYRPTDSDNDSDYKRDVVEGSKQWHMIGHLQPETSYDIKMQCFNEGGESEFSNVMICETKVKRVPGASEYPVKDLSTPPNSLGSGGNVGPATSPARSSDMLYLIVGCVLGVMVLILMVFIAMCLWKNRQQNTIQKYDPPGYLYQGSDMNGQMVDYTTLSGASQINGNVHGGFLTNGGLSSGYSHLHHKVPNAVNGIVNGSLNGGLYSGHSNSLTRTHVDFEHPHHLVNGGGMYTAVPQIDPLECVNCRNCRNNNRCFTKTNSTFSSSPPPVVPVVAPYPQDGLEMKPLSHVKVPVCLTSAVPDCGQLPEESVKDNVEPVPTQRTCCQDIVNDVSSDGSEDPAEFSRGQEGMINLRIPDHLQLAKSCVWEGDSCAHSETEINIVSWNALILPPVPEGCAEKTMWSPPGIPLDSPTEVLQQPRET |  |  |  |  |  |  |  |  |  | inhibiting cell proliferation | did not proliferate dermal papilla cells or rather inhibited proliferation thereof |
